Reference: patent US9023806B2, “Peptide capable of altering tubulin polymerization and use thereof for inhibiting cell proliferation” (Universite d'Angers, priority 2004, dated 2015)
Entries after “also recorded” stand apart in the source; their conditions may differ.

Tests used:
tubulin [1] = assay: Peptide-on-membrane chip blot overlay with purified tubulin; format: binding, mice; conditions: purified tubulin overnight at 4° C., anti-βIII tubulin antibody
Description: Peptide chips corresponding to the NFL, NFM and NFH neurofilament subunits were obtained according to Frank et al., 1992, with an ASP 222 automat spot robot. Each neurofilament sequence was divided into sequences of 15 amino acids.
These peptides overlap 12 amino acids of the next peptide. The overlapping peptides were synthesized on spots, like a chip, on a specially produced cellulose membrane (AIMS scientific product, GmbH, Braunschweig, Germany). The peptides are bound to the membrane with a polyethylene glycol bridge owing to their carboxy-terminal amino acid. The synthetic procedure followed is that of Frank et al., 1996.
Alternatively, the strips that were detected were cut out and analyzed by mass spectrometry. The peptide-on-membrane chip was incubated overnight at 4° C. with purified tubulin. After extensive washing with TBS (1×) the membranes were incubated with anti-βIII-tubulin antibodies in order to detect the amino acid sequences that interact with tubulin.
In order to identify the sequences responsible for the binding of tubulin to the neurofilaments, we use peptide-on-membrane chips, corresponding to the three neurofilament subunits (see experimental procedures). This method makes it possible to identify the binding domain involved in protein-protein interaction. […] The NFL subunit contains two tubulin binding sequences of 24 amino acids which we call NFL-TBS1 and NFL-TBS2 whereas NFM-TBS and NFH-TBS both contain 39 amino acids (FIG. 2A). […]

tubulin [2] = assay: Spectrophotometric (turbidimetry, OD 350 nm) analysis of microtubule polymerization; format: biochemical, mice; conditions: for influence on polymerization of microtubules (inhibition or activation): in vitro turbidimetry
Procedure: The alteration of tubulin polymerization is measured by measuring the turbidity (optical density at 350 nm) of a tubulin suspension. A decrease in turbidity of at least 1% is a sign of inhibition of tubulin polymerization.
The polymerization of tubulin from the supernatant S3 of a microtubule preparation was investigated by turbidimetry. Briefly, the supernatant S3 (3 mg/ml) was incubated at 37° C. in the presence of 1 mM of GTP in a Helios α thermospectronic spectrophotometer to monitor the variations in optical density at 350 nm.
To test this hypothesis, we conducted turbidimetry experiments with the various peptide sequences identified by blot overlay on the peptide chip. For this purpose, the supernatant S3 (containing free tubulin), obtained from a microtubule preparation, was polymerized at 37° C. in the presence of 1 mM GTP and several concentrations (3, 10, 30, and 100 μM) of tubulin binding peptide, which were added before polymerization (t=0).
As previously for the NF-TBS peptides, studies of the influence of the peptides of vimentin, cytokeratin and GFAP identified by peptide chip on the assembly of microtubules in vitro were carried out by the same technique as described previously in the Material and Method section (Spectrophotometric analysis of microtubule polymerization) in Example 1.

T98G cells [3] = assay: Peptide uptake and in-situ microtubule network by immunofluorescence; format: cell-based; conditions: 6 hours
Procedure: (A-A′-A″): The T98G cells are treated with the peptides SEQ ID No. 6 (10 μM) for 6 hours and the microtubules are then detected using an anti-tubulin antibody (red) and the biotinylated peptides SEQ ID No. 6 are detected using Alexa-labeled avidin (green).
To determine whether they could also modify the in-situ assembly of microtubules, T98G cells were incubated with 10 μm of biotinylated peptides SEQ ID No. 6. After incubation for 6 hours, more than 75% of the cells contain the peptide (FIG. 8 A, A′, A″) and are characterized by an unusual spherical shape.

T98G cells [4] = assay: FACS (flow cytometry) cell cycle analysis; format: cell-based
Description: (B-B′): Analysis by flow cytometry of control cells and cells treated with the peptides SEQ ID No. 6.
The microtubules constitute an important component of the achromatic spindle. To determine whether the presence of peptides SEQ ID No. 6 could affect cell division, the inventors usually carry out a FACS (Fluorescence Activated Cell Sorter) analysis to compare the distribution of the cycles of control cells and T98G cells treated with 10 μm of peptide SEQ ID No. 6.
In order to determine how a peptide that is an activator of microtubule polymerization affects cell division, a FACS analysis was carried out to compare the distribution of the cycles of untreated T98G cells (without peptide) or treated with 100 μm of peptide GFAP-TBS1 (SEQ ID No. 26), by the same protocol as that described in Example 2.

T98G cells [5] = assay: MTS cell proliferation test; format: cell-based
Description: The effect of exposure of peptide SEQ ID No. 6 on cell proliferation was confirmed using MTS analysis (described in Cory A. H. et al., 1991, Cancer Commun. 3, 207-212, incorporated here by reference) in which the inventors observed fewer cells in the cultures treated with peptide SEQ ID No. 6 (FIG. 8C).

| Sequence | tubulin binding site detected on peptide chip (tubulin [1]) | influence on polymerization of microtubules (inhibition or activation) (tubulin [2]) | other results |
| --- | --- | --- | --- |
| SLPLVDTHSKRTLLIKTVETR (listed as Mus musculus) [Vim-TBS3] | tubulin binding sites | inhibitors of microtubule polymerization |  |
| RSAAGSSSGFHSWARTSVSSVSASPSRFRGAASSTDSLD (listed as Mus musculus) [NFH-TBS] | single binding sequence |  |  |
| YSSYSAPVSSSLSVRRSYSSSSGS (listed as Mus musculus) [NFL-TBS2] | tubulin binding domains | powerful effect; also recorded: inhibitors of microtubule polymerization | inhibition of tubulin polymerization (tubulin [2]; 100 μM peptide, supernatant S3, 37° C., 1 mM GTP): 100%; microtubule network in cells containing the peptide (T98G cells [3]; 10 μM, anti-tubulin antibody, listed as SEQ ID No. 6): lack a typical microtubule network; also recorded: disunited network of microtubules; cells containing the peptide (T98G cells [3]; biotinylated peptide, 10 μm): more than 75%; cell cycle effect compared with control cells (T98G cells [4]; 10 μM, 48 hours): strong stopping in phase G1; cells in phase G1 of mitosis (T98G cells [4]; 10 μm peptide, culture for 48 hours (untreated 39%)): 61%; proliferation of T98G cells relative to untreated control (T98G cells [5]; 10 μM for 48 hours, listed as SEQ ID No. 6): greatly reduced; also recorded: fewer cells; degradation or elimination of peptide during culture (T98G cells [5]; inferred from comparison with medium replaced at 24 hours): little (if any) degradation or elimination; inhibition of the increase in number of cells (T98G cells [5]; medium containing peptide replaced at 24 hours, data not shown): clearly observed |
| GGAYVTRSSAVRLRSSVPGVRLLQ (listed as Mus musculus) [Vim-TBS2] | tubulin binding sites | activate microtubule polymerization |  |
| MSIRVTQKSYKMSTSGPRAFSSRSFTSGPGARISSSSFSRVGSSSSSFRGSMGT (listed as Mus musculus) [Ker-TBS1] | tubulin binding sites | activate microtubule polymerization |  |
| FGYDPYFSTSYKRRYVETPRVHIS (listed as Mus musculus) [NFL-TBS1] | tubulin binding domains |  |  |
| QIKSLNNKFASFIDKVRFLEQ (listed as Mus musculus) [Ker-TBS2] | tubulin binding sites |  |  |
| AYRRVPTETRSSFSRVSGSPSSGFRSQSWSRGSPSTVSS (listed as Mus musculus) [NFM-TBS] | single binding sequence |  |  |
| KSVSEGHLKRNIVVKTVEMRD (listed as Mus musculus) [GFAP-TBS3] | tubulin binding sites | inhibitors of microtubule polymerization |  |
| SSPVFPRAGFGTKGSSSSMTSRVYQVSRTSGGAGGLGSLRSSRLGTTRAPSYGA (listed as Mus musculus) [Des-TBS2] | tubulin binding sites |  |  |
| GSEVHTKKTVMIKTIETRDGE (listed as Mus musculus) [Des-TBS3] | tubulin binding sites |  |  |
| SAGGSNTFSRTTKAVVVKKIETRDGKLVSE (listed as Mus musculus) [Ker-TBS3] | tubulin binding sites |  |  |
| MERRRITSARRSYASETVVRGLGP (listed as Mus musculus) [GFAP-TBS1] | tubulin binding sites | activate microtubule polymerization | cell cycle effect compared with control cells (T98G cells [4]; 100 μM, 36 hours): strong stopping in phase G1; also recorded: inhibits cell division |
| MSQAYSSSQRVSSYRRTFGGAPGFSLG (listed as Mus musculus) [Des-TBS1] | tubulin binding sites |  |  |
| MSTRSVSSSSYRRMFGGS (listed as Mus musculus) [Vim-TBS1] | tubulin binding sites |  |  |
| VRGLGPSRQLGTMPRFSLSRMTPPLPARVDFSLAGA (listed as Mus musculus) [GFAP-TBS2] | tubulin binding sites |  |  |
